Assays:
Type in all cases: in vivo
[1] = test system: Pythium irregulare, pathogen of cucumber damping-off; assay: Cucumber damping-off seed treatment test with metalaxyl (Test Example 4); conditions: seventh day
Method: (§1) Control value=100(A−B)/A “Equation 1”
(§2) A: Incidence of disease of plant in untreated area
(§3) B: Incidence of disease of plant in treated area
(§4) Generally, the control value expected for the case where the given two kinds of active ingredient compounds are mixed and used for the treatment, the so-called control value expectation is calculated from the following Colby's calculating equation. E=X+Y−(X×Y)/100 “Equation 2”
(§5) X: Control value (%) when active ingredient compound A is used for treatment in M g per hectare or in M g per 100 kg of seeds
(§6) Y: Control value (%) when active ingredient compound B is used for treatment in N g per hectare or in N g per 100 kg of seeds
(§7) E: Control value (%) expected for the case where active ingredient compound A in M g per hectare or in M g per 100 kg of seeds and active ingredient compound B in N g per hectare or in N g per 100 kg of seeds are mixed and used for treatment (hereinbelow referred to as “control value expectation”) “Synergetic effect”=(Actual control value)×100/(Control value expectation) Incidence of disease=(Number of no budding seeds)×100/(Number of total disseminated seeds) “Equation 3”
(§8) An acetone solution of compound (1b) and an acetone solution of metalaxyl were mixed so as to prepare mixed liquids containing compound (1b) and metalaxyl in predetermined concentration. These mixed liquids were adhered on the surface of cucumber (Sagamihanjiro) seeds so as to obtain treated seeds. […] They were allowed to grow in a greenhouse while irrigated and the number of non-budding seeds was checked on the seventh day after the dissemination and the incidence of disease was calculated by Equation 3. The control value was calculated by Equation 1 based on the incidence of disease. In order to calculate the control value, the incidence of disease was also determined in the case in which the plants had not been treated with the agent. […]

[2] = test system: Rhizoctonia solani, pathogen of cucumber damping-off; assay: Cucumber damping-off seed treatment test (Test Example 1); conditions: seventh day
Description: An acetone solution of compound (1b) and an acetone solution of tolclofos-methyl were mixed so as to prepare mixed liquids containing compound (1b) and tolclofos-methyl in predetermined concentration. These mixed liquids were used for smear treatment of cucumber (Sagamihanjiro) seeds using a rotary seed treatment machine (seed dresser, produced by Hans-Ulrich Hege GmbH) so as to obtain treated seeds. The treated seeds were left untouched overnight and then disseminated on the soil which filled a plastic pot and covered with the soil containing Rhizoctonia solani, pathogen of cucumber damping-off, which had been cultured on a bran medium. They were allowed to grow in a greenhouse while irrigated and the number of non-budding seeds was checked on the seventh day after the dissemination and the incidence of disease was calculated by Equation 3. The control value was calculated by Equation 1 based on the incidence of disease. The incidence of disease was also checked in the case in which the plants had not been treated with the agent in order to calculate the control value. […]
Generally, the control value expected for the case where the given two kinds of active ingredient compounds are mixed and used for the treatment, the so-called control value expectation is calculated from the following Colby's calculating equation. […]

[3] = test system: Sclerotinia homeocarpa, pathogen of dollar spot of turfgrass; assay: Turfgrass dollar spot foliage application test (Test Example 2); conditions: 14 days
Method: as §1, §2, §3, §4, §5, §6, §7
A plastic pot was filled with sandy soil. Turfgrass (bentgrass penncross) was disseminated and allowed to grow in a green house for 3 weeks. A wettable powder of compound (1b) and a wettable powder of tolclofos-methyl (Grancer Wettable Powder manufactured by Nihon Green & Garden Corporation) were respectively diluted with water and then tank-mixed so as to prepare tank-mixed liquids containing compound (1b) and tolclofos-methyl in predetermined concentration. The tank-mixed liquids were subjected to foliage application such that they could be sufficiently adhered to the leaves of the aforementioned turfgrass. Thereafter, the plants were air-dried. After the plants were air-dried, Sclerotinia homeocarpa, pathogen of dollar spot of turfgrass, which had been cultured on a bran medium was sprayed on the plants to be treated from above. Then, the plants were placed in a greenhouse at 19° C. to 23° C. under high humidity for 14 days, and thereafter control effect was checked. The diseased area ratio of the pot plants on which the agents had been sprayed was determined as the incidence of disease at the time of checking and the control value calculated by Equation 1 based on the incidence of disease thus determined. In order to calculate the control value, the incidence of disease was also determined in the case in which the plants had not been treated with the agent.
As a comparison, the respective wettable powders described above were diluted with water in predetermined concentration so as to prepare a compound (1b) liquid and a tolclofos-methyl liquid respectively and they were subjected to similar tests.

[4] = test system: Rhizoctonia solani, pathogen of brown patch of turfgrass; assay: Turfgrass brown patch foliage application test (Test Example 3); conditions: 14 days
Method: as §1, §2, §3, §4, §5, §6, §7
A plastic pot was filled with sandy soil. Turfgrass (bentgrass penncross) was disseminated and allowed to grow in a green house for 3 weeks. A wettable powder of compound (1b) and a wettable powder of tolclofos-methyl (Grancer Wettable Powder manufactured by Nihon Green & Garden Corporation) were respectively diluted with water and then tank-mixed so as to prepare tank-mixed liquids containing compound (1b) and tolclofos-methyl in predetermined concentration. […] The diseased area ratio of the pot plants on which the agents had been sprayed was determined as the incidence of disease at the time of checking and the control value was calculated by Equation 1 based on the incidence of disease thus determined. In order to calculate the control value, the incidence of disease was also determined in the case in which the plants had not been treated with the agent. […]

[5] = test system: Pythium irregulare, pathogen of cucumber damping-off; assay: Cucumber damping-off seed treatment test with mefenoxam (Test Example 5); conditions: seventh day
Method: as §1, §2, §3, §4, §5, §6, §7
as §8, with “mefenoxam” for “metalaxyl”

[6] = compound (1b) 0.005 g/100 kg-seed alone
[7] = tolclofos-methyl 37.5 g/ha alone

CNC(=O)C(OC)c1ccccc1COc1cc(C)ccc1C (racemic) [(1b)]
Actual control value [1, 6]: 25% | Actual control value ([2]; compound (1b) 1 g/100 kg-seed alone): 30% | Actual control value (%) ([3]; compound (1b) 150 g/ha alone): 67.2% | Actual control value ([4]; compound (1b) 9.4 g/ha alone): 30% | Actual control value ([4]; compound (1b) 37.5 g/ha alone): 45% | Actual control value [5, 6]: 25%

COCC(=O)N(c1c(C)cccc1C)C(C)C(=O)OC (stereo not drawn) [Metalaxyl, metalaxyl]
Actual control value ([1]; metalaxyl 0.00125 g/100 kg-seed alone): 25% | Actual control value ([1]; metalaxyl 0.0025 g/100 kg-seed alone): 12.5%

COCC(=O)N(c1c(C)cccc1C)[C@H](C)C(=O)OC [Mefenoxam, mefenoxam]
Actual control value ([5]; mefenoxam 0.00125 g/100 kg-seed alone): 25% | Actual control value ([5]; mefenoxam 0.005 g/100 kg-seed alone): 50%

COP(=S)(OC)Oc1c(Cl)cc(C)cc1Cl [Tolclofos-methyl, tolclofos-methyl]
Actual control value ([2]; tolclofos-methyl 10 g/100 kg-seed alone): 57% | Actual control value (%) [3, 7]: 12.4% | Actual control value (%) ([3]; tolclofos-methyl 150 g/ha alone): 43.7% | Actual control value (%) ([3]; tolclofos-methyl 600 g/ha alone): 59.3% | Actual control value [4, 7]: 30%
